One assay addresses T1, NR1H3 (Homo sapiens, UniProt Q13133).
T1 construct: amplification of the complete open reading frame from ATG start codon to the stop codon of drugable genes; expressed in transfected cells; host or cells: primary human bone-marrow mesenchymal progenitor cells (MPCs), adenoviral transduction (Ad5-NR1H3 with Ad-hCAR)
T1 sequence (Q13133 1-447): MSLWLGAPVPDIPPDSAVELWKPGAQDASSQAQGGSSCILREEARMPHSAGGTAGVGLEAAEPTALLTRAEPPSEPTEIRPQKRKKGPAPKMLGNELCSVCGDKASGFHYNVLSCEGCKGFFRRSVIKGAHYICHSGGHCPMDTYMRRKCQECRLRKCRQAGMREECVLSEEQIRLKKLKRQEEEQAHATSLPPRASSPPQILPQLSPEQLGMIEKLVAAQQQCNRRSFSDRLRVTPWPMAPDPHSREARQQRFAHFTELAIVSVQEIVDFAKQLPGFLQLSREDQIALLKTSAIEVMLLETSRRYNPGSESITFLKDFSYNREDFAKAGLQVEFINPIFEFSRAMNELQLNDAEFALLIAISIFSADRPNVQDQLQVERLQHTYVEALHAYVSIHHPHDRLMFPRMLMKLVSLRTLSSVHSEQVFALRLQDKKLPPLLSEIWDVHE
Put plainly: Alkaline phosphatase (AP) assay in MPCs infected with Ad-NR1H3 and treated with ligand. It counts as cell-based. Particulars: MPCs infected with Ad-NR1H3, increasing ligand concentrations, MUP fluorescence readout. Here is the method:
Cellular AP activity is determined 6 days after the infection (or ligand addition—see below). The principle of the assays is depicted in FIG. 2. Mesenchymal stem cells derived from bone marrow are infected with the FLeXSelect™ cDNA library viruses in the presence of Ad5C15-hCAR or Ad5C20-hCAR virus. Six days after the start of infection or treatment with a ligand, endogenous alkaline phosphatase activity is measured following addition of 4-methylumbelliferyl […] (MUP) substrate.
The stocks of the Ad-control-viruses are generated in 96 well plates (control plate). The 2 μl volume corresponds to a theoretical MOI of 5000. Controls are: P1=Ad-BMP2; P2=Ad-H4-2; P3=Ad-H4-291; N1=Ad-LacZ; N2=Ad-empty; N3=Ad-eGFP. Up-regulation of alkaline phosphatase is read at 6 days post infection (6 dpi): 15 μl 4-Methylumbelliferyl-phosphate (MUP, Sigma) is added to each well, the plates are incubated for 15 min at 37° C. and monitored for AP activity using a fluorescence plate reader (Fluostar, BMG).
These dose-response curves are depicted in FIG. 5. […] MPCs are seeded on day 0 at 1000 cells per well of a 384 well plate and co-infected the next day using AdC51-hCAR (MOI 250) and different MOIs of Ad5-NR1H3 (MOI 12000, 4000, 1333, 444).
After 6 days, medium is removed and replaced with fresh medium containing the same concentrations of the compound GW3965. Readouts of AP activity are performed at several time points after the start of the experiment, typically after 7, 10 and 13 days.
After 6 days, medium is removed and replaced with fresh medium containing the same concentrations of the compound APD.

A further assay concerns the target T2, NR1H2 (Homo sapiens, UniProt P55055).
T2 construct: amplification of the complete open reading frame from ATG start codon to the stop codon of drugable genes; expressed in transfected cells; host or cells: primary human bone-marrow MPCs, adenoviral transduction (Ad5-NR1H2 with Ad-hCAR)
T2 sequence (P55055 1-460): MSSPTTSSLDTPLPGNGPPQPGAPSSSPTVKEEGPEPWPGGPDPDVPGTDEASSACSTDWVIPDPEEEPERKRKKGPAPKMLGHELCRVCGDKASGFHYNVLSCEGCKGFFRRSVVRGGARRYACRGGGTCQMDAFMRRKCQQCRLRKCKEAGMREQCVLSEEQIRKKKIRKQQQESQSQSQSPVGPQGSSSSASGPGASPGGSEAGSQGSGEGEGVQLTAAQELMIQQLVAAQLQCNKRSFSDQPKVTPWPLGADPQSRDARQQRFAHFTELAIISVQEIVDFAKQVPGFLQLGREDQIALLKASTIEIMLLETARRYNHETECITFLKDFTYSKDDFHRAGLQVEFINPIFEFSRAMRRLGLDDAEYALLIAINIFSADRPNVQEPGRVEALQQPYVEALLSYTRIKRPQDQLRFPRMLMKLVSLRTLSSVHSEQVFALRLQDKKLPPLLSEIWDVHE
Put plainly: Alkaline phosphatase (AP) assay in MPCs infected with Ad-NR1H2 and treated with ligand. It counts as cell-based. The following applies: MPCs infected with Ad-NR1H2, increasing ligand concentrations, MUP readout after 7, 10 and 13 days. Here is the method: (§1) After 6 days, medium is removed and replaced with fresh medium containing the same concentrations of the compound T0901317. Readouts of AP activity are performed at several time points after the start of the experiment, typically after 7, 10 and 13 days. Up-regulation of alkaline phosphatase activity is read as follows: medium is removed from the monolayers, 15 μl MUP is added to each well, the plates are incubated for 15 min at 37° C. and then read for AP activity using a fluorescence plate reader (Fluostar, BMG).
as §1, with “MPCs are seeded on day 0 at 1000 cells per well of a 384 well plate and co-infected the next day using AdC51-hCAR (MOI 250) and different MOIs of Ad5-NR1H2 (MOI 2000, 666). On day 1, 9 concentrations (1.52E-9M, 4.57E-9M, 1.37E-8M, 4.12E-8M, 1.23E-7M, 3.7E-7M, 1.11E-6M, 3.33E-6M, 1E-5M) of the compound GW3965 with fixed vehicle concentration (DMSO at final concentration of 0.161%) are added to the wells. After” for “After”, “GW3965.” for “T0901317.”
After 6 days, medium is removed and replaced with fresh medium containing the same concentrations of the compound APD. Readouts of AP activity are performed at several time points after the start of the experiment, typically after 7, 10 and 13 days. Up-regulation of alkaline phosphatase activity is read as follows: medium is removed from the monolayers, 15 μl MUP is added to each well, the plates are incubated for 15 min at 37° C. and then read for AP activity using a fluorescence plate reader (Fluostar, BMG).

A further assay relates to MPCs. Put plainly: Up-regulation of NR5A2 and NR1H3 mRNA levels by osteogenic triggers in MPCs. It counts as cell-based, human. Particulars: final concentration 0.1 μM, versus vehicle, several time points. The procedure:
100,000 MPCs are seeded in each well of a 6 well plate in 2 ml MPC medium, containing 10% FCS. The next day, after incubation at 37° C., 10% CO2 in a humidified incubator, cells are co-infected with AdC15-hCAR (final MOI of 750) and Ad-BMP2, Ad-RUNX2, Ad-MSX2, Ad-PTHR1/PTHLH or Ad-eGFP or Ad-luciferase as negative controls (final MOIs of 1250 and 2500). Alternatively, cells are treated with dexamethasone (final concentration 0.1 μM), VitD3 (final concentration 0.1 μM) or the vehicle controls (0.1% EtOH or DMSO). Cells are incubated at 37° C., 10% CO2 in a humidified incubator for a further six days unless cells are already harvested for RNA isolation. Virus is removed and replaced by 2 ml fresh OS medium (proprietary medium containing 10% FCS). Over the next 18 days, medium is refreshed 3 times per 2 weeks. Every other time, medium is refreshed half or completely. […] The fold up-regulation of NR5A2 or NR1H3 mRNA compared to negative controls (vehicle for dexamethasone or VitD3 treatment) or Ad-luciferase for Ad-infections) is calculated (FIG. 16).

In the next assay the target is T3, GPR65 (Homo sapiens, UniProt Q8IYL9).
T3 construct: amplification of the complete open reading frame from ATG start codon to the stop codon of drugable genes; expressed in transfected cells; host or cells: primary human bone-marrow MPCs, adenoviral transduction (Ad-GPR65 with Ad-hCAR)
T3 sequence (Q8IYL9 whole entry): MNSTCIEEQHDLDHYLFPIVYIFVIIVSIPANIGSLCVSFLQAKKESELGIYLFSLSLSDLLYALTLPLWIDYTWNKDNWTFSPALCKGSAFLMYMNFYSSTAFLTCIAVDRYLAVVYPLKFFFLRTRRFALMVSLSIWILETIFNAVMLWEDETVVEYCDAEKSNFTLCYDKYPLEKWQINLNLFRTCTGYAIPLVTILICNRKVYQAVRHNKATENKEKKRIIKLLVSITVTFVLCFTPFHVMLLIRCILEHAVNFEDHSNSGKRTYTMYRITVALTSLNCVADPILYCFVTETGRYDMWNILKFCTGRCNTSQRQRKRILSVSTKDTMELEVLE
Put plainly: Alkaline phosphatase (AP) assay in MPCs infected with Ad-GPR65 and treated with ligand. It counts as cell-based. Particulars: MPCs infected with Ad-GPR65, increasing ligand concentrations. Here is the method: These dose-response curves are depicted in FIG. 5. A dose-response curve for AP activity is generated for MPCs infected with Ad-NR1H3 and treated with T0901317 (FIG. 5A). MPCs are seeded on day 0 at 1000 cells per well of a 384 well plate and co-infected the next day using AdC51-hCAR (MOI 250) and different MOIs of Ad5-NR1H3 (MOI 12000, 4000, 1333, 444). On day 1, 5 concentrations (1E-10M, 1E-9M, 1E-8M, 1E-7M, 1E-6M) of the compound T0901317 (Cayman Chemical, Michigan USA, Cat. No. 71810) with fixed vehicle concentration (the vehicle is DMSO at the concentration is 0.01 %) are added to the wells. After incubation for 6 days at 37° C., 10% CO2 in a humidified incubator, up-regulation of alkaline phosphatase is read: 15 μl MUP is added to each well, the plates are incubated for 15 min at 37° C. and monitored for AP activity using a fluorescence plate reader (Fluostar, BMG).
Dose-response curves for AP activity are generated in a similar way for MPCs infected with Ad-GPR65 and treated with 1-b-D-Galactosylsphingosine (FIG. 5B); for MPCs infected with Ad-AVPR2 and treated with [deamino-Cys1, D-Arg8]-Vasopressin (DDAVP) (FIG. 5C).

In assay [1] the test system is calvarial skull bones (hemicalvaria). Put plainly: Calvarial skull assay (bone organ culture, weight and histological readout). The arrangement: species or system CD1 mice. The following applies: histological readout. Here is the method:
CD1 pups are harvested around birth from CD1 female mice (received from Janvier (Le Genest St Isle, France) when they were 11 days pregnant). Pups are decapitated and the calvarial skull is dissected and split into 2 hemicalvaria. Hemicalvaria are blotted using sterile gauze, weighed and cultured in 24 well plates (MEMalpha or BGJb-Fitton-Jackson medium containing 50 μg/ml L-ascorbic acid (Sigma, A-4034), 5 mM β-glycerophosphate (Sigma, G-9891) and Penicillin-Streptomycin (Invitrogen Cat # 15140-122)). Small molecules (ligands, agonists, antagonists) are tested in at least three-fold at a minimum of 3 concentrations. Each small molecule is added to the medium on day 0 and added again when refreshing the medium (every 2-3 days). Three to 16 days after the start of the experiment, skulls are weighed again after blotting them dry using sterile gauze. The weight difference is calculated, expressed as percent weight change and the mean and standard deviations (SD) are calculated for the triplicate measurements. Data are analyzed using the Student's t-test.
The formation of new osteoid is analyzed histologically as follows: hemicalvaria are fixed in 10% buffered formalin for at least 2 days, decalcified in 10% EDTA overnight, processed through graded alcohols and embedded in paraffin wax. Three to 10 μm sections are prepared of the calvaria and stained with hematoxylin and eosin (H&E). Healthy cells, dead cells, old and new bone, and collagen are identified by their distinctive morphology and colouring observed after H&E staining. The surfaces taken by these are measured stereologically (μm^2 readout) and termed Osteoblast area, Debris area, Native and New bone area, Collagen area and Total area (sum of the previous 5 areas), respectively. In addition, the thickness (μm readout) is measured at 8 positions, evenly spaced over the section.
The histological readout of the calvarial skull assay is developed using known osteogenic agents. Hemicalvaria were treated with recombinant human parathyroid hormone (rhPTH).
T0901317 is added to the culture medium of the dissected hemicalvaria at the day of dissection at several doses (19.5, 78.1 and 313 nM), in fourfold. The concentration of the solvent (vehicle), DMSO, is fixed at a final concentration of 0.05%. The medium, containing T0901317 or vehicle control is refreshed every 2-3 days. Hemicalvaria are harvested 7 days after the initiation of the experiment and subjected to the histological analysis described above.

For `CC(=O)Oc1ccc2c(c1)[C@@]1(C)CCC[C@](C)(C(=O)OC(=O)[C@@]3(C)CCC[C@]4(C)c5cc(OC(C)=O)ccc5CC[C@@H]34)[C@@H]1CC2` [APD, acetyl podocarpic dimer], the “up-regulation of endogenous alkaline phosphatase (AP) activity” value at NR1H3 was “dose-response relation”. In addition, the “up-regulation of alkaline phosphatase (AP) activity” value on NR1H2 is “dose-response relation”.
Take `C=C1CC[C@H](O)C/C1=C/C=C1\CCC[C@]2(C)[C@@H]([C@H](C)CCCC(C)C)CC[C@@H]12` [VitD3]: the “NR5A2 mRNA levels” value in the assay with MPCs is given as “up-regulated”.
Take `CCCCCCCCCCCCCC=CC(O)C(N)CO[C@@H]1O[C@H](CO)[C@H](O)[C@H](O)[C@H]1O` (stereo partly drawn) [1-b-D-Galactosylsphingosine]: the “up-regulation of endogenous alkaline phosphatase (AP) activity” value at GPR65 is “dose-dependently increase”.
Regarding `O=C(O)Cc1cccc(OCCCN(Cc2cccc(C(F)(F)F)c2Cl)CC(c2ccccc2)c2ccccc2)c1` [GW3965], the “up-regulation of endogenous alkaline phosphatase (AP) activity” value at NR1H3 is recorded as “dose-response relation”. At NR1H2, the “up-regulation of alkaline phosphatase (AP) activity” value is reported as “dose-response relation”.

B1: PTH: recombinant human parathyroid hormone, known osteogenic agent (protein, UniProt P01270 32-115, looked up)
Parathyroid hormone: SVSEIQLMHNLGKHLNSMERVEWLRKKLQDVHNFVALGAPLAPRDAGSQRPRKKEDNVLVESHEKSLGEADKADVNVLTKAKSQ
modifications: Parathyroid hormone
notes: recombinant human parathyroid hormone, known osteogenic agent
For B1, the figures for the “effect on bone tissue” value in assay [1] (10^−7 M) and in assay [1] (10^−11 M) were “resorptive effect” and “induces bone build-up”, respectively.

For the origin of these results see US20060014231A1, “Methods and compositions to promote bone homeostasis” (priority 2004, published 2006).
